The values that follow come from US4374248A, “3,4-Disubstituted-1,2,5-thiadiazole-1-oxide compounds” (Bristol-Myers Company, priority 1981, dated 1983).

Read-outs that look alike come from different tables or passages of the source.

In data set [1] the test system is Gastric Acid Output. The data set can be described thus: Gastric Antisecretory Activity in the Two Hour Pylorus Ligated (Shay) Rat. The note with it: 2 h. The format is in vivo, rat (Male Long Evans). The source says: Med. Res., 3, 86 (1975). […] One of the standard animal models for determining gastric antisecretory activity of histamine H2 -antagonists is the pylorus ligated rat.
Determination of Gastric Antisecretory Activity in the Two Hour Pylorus Ligated (Shay) Rat
The pyloric ligation procedure in the rat was designed by Shay et al., Gastroenterology, 5, 53 (1945) for the study of perforating gastric ulcers; however, as the method became known, it was also employed as a means of studying rat gastric secretion, Shay et al., Gastroenterology, 26, 906 (1954), Brodie, D, A. Am. J. Dig. Dis., 11, 231 (1966). A modification of this procedure is presently used to evaluate compounds for gastric antisecretory activity.
Male Long Evans rats, 280-300 gm., are used. The animals are placed in individual cages and fasted for 24 hours with free access to water. Under ether anesthesia, the stomach is reached through a midline incision, and a cotton-thread ligature is placed around the pylorus. After wound closure, ether administration is stopped and the test compound or control vehicle is administered either intraperitoneally or subcutaneously in a volume of 1 ml./kg. All compounds are solubilized with one equivalent of HCl and brought to the proper volume with water. The animals are returned to their cages from which the water bottles have been removed and two hours later are sacrificed with ether. The stomach is removed and the two hour gastric collection is drained into a graduated test tube for volume determination. Titratable acidity is measured by titrating a one ml. sample to pH 7.0 with 0.02 NaOH, using an Autoburet and electrometric pH meter (Radiometer). Titratable acid output is calculated in microequivalents by multiplying the volume in milliliters by the acid concentration in milliequivalents per liter. The percent inhibition of acid output is calculated as follows [formula] At least five rats are used at each dosage level, and a minimum of three dosage levels are utilized for determination of a dose response curve. Initially this test was conducted utilizing intraperitoneal injection of the test compound or control vehicle. […] The route of administration of each compound is noted in Table 1.

Data set [2] has as its system gastric secretion. Particulars: cited from earlier work.
For data set [3] the following is noted: in vivo; cited from earlier work.
Data set [4] relates to H2 -receptor. The note with it: cited from earlier work.
The conditions of data set [5]: clinical; cited from earlier work.
Data set [6] concerns peptic ulcer disease. The note with it: Gray et al., Lancet, 1, 8001 (1977); cited from earlier work.
Setting [7] is: sc, s.c. administration, two hour gastric acid output, 95% confidence limits in parenthesis, read-out: ED50.

As a reminder, the ED50 is the dose at which the effect has come halfway, by size or by number of responders. `CNC1=NS(=O)(=O)N=C1NCCSCc1ccc(CN(C)C)o1` [11 B]: the ED50 in data set [1] (ip, i.p. administration, two hour gastric acid output, 95% confidence limits in parenthesis, read-out: ED50) stood at 0.69 µmol/kg.
Regarding `CN(C)Cc1ccc(CSCCNC2=NS(=O)(=O)N=C2NCCSCc2ccc(CN(C)C)o2)o1` [11 C], the ED50 in data set [1] (setting [7]) is 0.2 µmol/kg.
As to `CNCc1ccc(CSCCNC2=NS(=O)(=O)N=C2NC)o1` [20 A], in data set [1] (setting [7]), the median effective dose (ED50) stood at 1.15 µmol/kg.
With `CNC1=NS(=O)(=O)N=C1NCCCOc1cccc(CN2CCCC2)c1` [144 a], the ED50 in data set [1] (setting [7]) was 0.095 µmol/kg.
Consider `CNC1=NS(=O)(=O)N=C1NCCCOc1cccc(CN2CCC(C)CC2)c1` [144 b], for which, in data set [1] (setting [7]), the ED50 was 0.025 µmol/kg.
On the same count and under the same terms, then `CNC1=NS(=O)(=O)N=C1NCCCOc1cccc(CN2CCCCCC2)c1` [144 c], with 0.14 µmol/kg; and `CNC1=NS(=O)(=O)N=C1NCCCOc1cccc(CN2CCOCC2)c1` [144 d], with 0.91 µmol/kg.
In the case of `Nc1n[s+]([O-])nc1NCCCOc1cccc(CN2CCCC2)c1` (stereo not shown) [145 a], in data set [1] (setting [7]), the ED50 came out at 0.056 µmol/kg.
Regarding `CC1CCN(Cc2cccc(OCCCNc3n[s+]([O-])nc3N)c2)CC1` (stereo not shown) [145 b], the ED50 in data set [1] (setting [7]) is around 0.06 µmol/kg.
Same read-out and setting: with `Nc1n[s+]([O-])nc1NCCCOc1cccc(CN2CCCCCC2)c1` (stereo not shown) [145 c] the figure was 0.025 µmol/kg.
On the same count and under the same terms, then `Nc1n[s+]([O-])nc1NCCCOc1cccc(CN2CCCCCCC2)c1` (stereo not shown) [145 d], with 0.05 µmol/kg; and `NC1=NS(=O)(=O)N=C1NCCCOc1cccc(CN2CCCC2)c1` [146 a], with 0.023 µmol/kg.
Turning to `NC1=NS(=O)(=O)N=C1NCCCOc1cccc(CN2CCOCC2)c1` [146 d], in data set [1] (setting [7]), the ED50 is 0.28 µmol/kg.
Regarding `CNC(=S)NCCCCc1cnc[nH]1` [Burimamide], the “inhibition of gastric secretion” value in data set [2] (animals and man) is “inhibits gastric secretion in animals and man”. Besides, the oral absorption result in data set [3] is “poor”.
On to `CNC(=NC#N)NCCSCc1nc[nH]c1C` [Cimetidine], for which, in data set [4], the “H2 -antagonist potency/effectiveness relative to another antagonist” value is given as “as effective an H2 -antagonist as metiamide”. Further, the “toxicity (agranulocytosis)” value in data set [5] is on record as “without producing agranulocytosis”. Also, the “therapeutic effect in peptic ulcer disease” value in data set [6] is given as “effective therapeutic agent in the treatment of peptic ulcer disease”. In data set [1], this compound had an ED50 of around 9 µmol/kg.
For `CN(C)Cc1ccc(CSCCNC2=NS(=O)(=O)N=C2N(C)C)o1` [Example 28, 3-{2-[(5-Dimethylaminomethyl-2-furyl)methylthio]ethylamino}-4-dimethylamino-1,2,5-thiadiazole 1,1-dioxide], in data set [1] (setting [7]), the ED50 turned out to be 1.39 µmol/kg.
On to `CN(C)Cc1ccc(CSCCNC2=NS(=O)(=O)N=C2N2CCCCC2)o1` [Example 102, 3-{2-[(5-Dimethylaminomethyl-2-furyl)methylthio]ethylamino}-4-piperidino-1,2,5-thiadiazole 1,1-dioxide], for which the ED50 in data set [1] (setting [7]) is around 15 µmol/kg.
On the same count and under the same terms, with `CCCCCCCCCCCCNC1=NS(=O)(=O)N=C1NCCSCc1ccc(CN(C)C)o1` [Example 106, 3-{2-[(5-Dimethylaminomethyl-2-furyl)methylthio]ethylamino}-4-dodecylamino-1,2,5-thiadiazole 1,1-dioxide] the figure was around 80 µmol/kg.
As for `CNC(=S)NCCSCc1nc[nH]c1C` [Metiamide], in data set [4], the “H2 -antagonist potency/effectiveness relative to another antagonist” value was “more potent than burimamide”. In data set [5], the “toxicity (agranulocytosis)” value was “toxicity (agranulocytosis)”. In addition, the oral activity entry in data set [2] (in man, oral) was “orally active in man”.
